The results in this text go back to patent US4493843A, “Indole and indoline carboxylic acid compounds and method of use” (May & Baker Limited, priority 1980, dated 1985).

Where a name gives a salt, the structure may show the parent alone. Read-outs that look alike come from different tables or passages of the source.

The test relates to serum cholesterol and serum triglycerides. As to the kind of experiment: Hypolipidaemic activity in rats (compound in diet, last 7 of 10 days). The format is in vivo, Male Wistar rats. As to conditions: 7 days; for change in vivo at 0.2 % strength / change in vivo at 0.1 % strength: Rattus norvegicus, po, 168 h; for change in vivo at 0.1 % strength: 0.1 % w/w dose in diet. Here is the method: Hypolipidaemic Activity in Rats
Male Wistar rats each weighing between 120 and 150 g were caged in groups of eight and fed a powdered diet for 10 days. For the last 7 days of that period the test compound was administered orally by mixing the compound in the diet and allowing the animals to feed normally. Food consumption was measured on day 9 for each group.
At noon on day 10 the animals were killed by inhalation of carbon dioxide from solid carbon dioxide. A sample of blood was removed by cardiac puncture and the serum cholesterol and serum triglycerides were analysed by means of an autoanalyser.
Control groups (receiving only the normal, unmedicated diet) were included with each test.
The percentage reductions in the concentrations of serum cholesterol and serum triglycerides were calculated by comparison with the simultaneous controls, for each concentration of the test compound used.

Where [1] appears, read: 0.2 % w/w dose in diet, read-out: % change in serum cholesterol compared with control.
[2] abbreviates: 0.2 % w/w dose in diet, read-out: % change in serum triglycerides compared with control.

`CCCCCCCCCCCc1cc2c(C(=O)O)cccc2[nH]1` [Compound W, 2-(n-undecyl)indole-4-carboxylic acid]: the change in vivo at 0.2 % strength runs as follows: under setting [1], -3%; under setting [2], 22%.
Taken in the same sequence, the figures for `CCCCCCCCCCCCCCCCc1c[nH]c2ccc(C(=O)OC)cc12` [Compound BCC, methyl 3-(n-hexadecyl)indole-5-carboxylate] were 2% and 16%.
Taken in the same sequence, the figures for `CCCCCCCCCCCCc1cc2ccc(C(=O)O)cc2[nH]1` [Compound S, 2-(n-dodecyl)indole-6-carboxylic acid] were -26% and -52%.
Taken in the same sequence, the figures for `CCCCCCCCCCCCCCCc1cc2ccc(C(=O)OCCCC)cc2[nH]1` [Compound APP, n-butyl 2-(n-pentadecyl)indole-6-carboxylate] were -2% and -20%.
`CCCCCCCC1Cc2ccc(C(=O)O)cc2N1` (racemic) [Compound AEE, (RS)-2-(n-heptyl)indoline-6-carboxylic acid]: the change in vivo at 0.2 % strength runs as follows: under setting [1], -22%; under setting [2], -37%.
With `CCCCCCCCCCCc1cc2ccc(C(=O)O)cc2[nH]1` [Compound C, 2-(n-undecyl)indole-6-carboxylic acid], the change in vivo at 0.1 % strength runs as follows: (read-out: % change in serum cholesterol compared with control) -28%; (read-out: % change in serum triglycerides compared with control) -39%.
Consider `CCCCCCCc1cc2cc(C(=O)OCCCC)ccc2[nH]1` [Compound ARR, n-butyl 2-(n-heptyl)indole-5-carboxylate], for which the change in vivo at 0.2 % strength was determined as 8% under setting [1] and 20% under setting [2].
The corresponding values for `CCCCCCCCCCCC1Cc2ccc(C(=O)O)cc2N1` (racemic) [Compound AFF, (RS)-2-(n-undecyl)indoline-6-carboxylic acid] are -38% and -58%.
On to `CCCCCCCCCCCC1Cc2cc(C(=O)O)ccc2N1C` (racemic) [Compound BJJ, (RS)-1-methyl-2-(n-undecyl)indoline-5-carboxylic acid], for which the change in vivo at 0.2 % strength is, setting by setting: under setting [1], -15%; under setting [2], -41%.
With `CCCCCCCCc1c[nH]c2cc(C(=O)OC)ccc12` [Compound AZZ, methyl 3-(n-octyl)indole-6-carboxylate], the change in vivo at 0.2 % strength reads like this: under setting [1], -18%; under setting [2], 24%.
Taken in the same sequence, the figures for `CCCCCCCCCCCCCCCCCCCCCCCc1cc2cc(C(=O)O)ccc2[nH]1` [Compound QQ, 2-(n-tricosyl)indole-5-carboxylic acid] were -16% and -36%.
On to `CCCCCCCCCCCc1cc2cc(C(=O)OC)ccc2[nH]1` [Compound ATT, methyl 2-(n-undecyl)indole-5-carboxylate], for which the change in vivo at 0.2 % strength is, setting by setting: under setting [1], -16%; under setting [2], -70%.
The corresponding values for `CCCCCCCCCCCCCCCc1cc2ccc(C(=O)OC)cc2[nH]1` [Compound ANN, methyl 2-(n-pentadecyl)indole-6-carboxylate] are 1% and -25%.
Taken in the same sequence, the figures for `CCCCCCCCCCCCCCCc1cc2cc(C(=O)OCC)ccc2[nH]1` [Compound BB, ethyl 2-(n-pentadecyl)indole-5-carboxylate] were -19% and -39%.
Taken in the same sequence, the figures for `CCCCCCCCCCC1CNc2ccc(C(=O)O)cc21` (racemic) [Compound BPP, (RS)-3-(n-decyl)indoline-5-carboxylic acid] were -3% and 0%.
Take `CCCCCCCCCCCCCCC1Cc2ccc(C(=O)O)cc2N1` (racemic) [Compound AGG, (RS)-2-(n-tetradecyl)indoline-6-carboxylic acid]: the change in vivo at 0.2 % strength under setting [1] was -8% and the change in vivo at 0.2 % strength under setting [2] is -23%.
In the case of `CCCCCCCCCCCCCCCc1cc2c(C(=O)OCC)cccc2[nH]1` [Compound EE, ethyl 2-(n-pentadecyl)indole-4-carboxylate], the change in vivo at 0.2 % strength is -5% under setting [1] and -2% under setting [2].
The corresponding values for `CCCCCCCCCCCCc1cc2ccc(C(=O)OCC)cc2[nH]1` [Compound CC, ethyl 2-(n-dodecyl)indole-6-carboxylate] are -17% and -57%.
Turning to `CCCCCCCCCc1cc2ccc(C(=O)O)cc2[nH]1` [Compound L, 2-(n-nonyl)indole-6-carboxylic acid], the change in vivo at 0.2 % strength runs as follows: under setting [1], -21%; under setting [2], -25%.
In the case of `CCCCCCCCCCCc1cc2ccc(C(=O)O)cc2[nH]1` [C sodium salt], under “0.2 % w/w dose in diet, oral”, the “% change in serum cholesterol compared with control” value is on record as -41% and the “% change in serum triglycerides compared with control” value is recorded as -46%.
As for `CCCCCCCCCCCCCCCCCCc1c[nH]c2ccc(C(=O)O)cc12` [Compound BSS, 3-(n-octadecyl)indole-5-carboxylic acid], the change in vivo at 0.2 % strength is, setting by setting: under setting [1], -9%; under setting [2], -11%.
The corresponding values for `CCCCCCCCc1cc2cc(C(=O)O)ccc2[nH]1` [Compound X, 2-(n-octyl)indole-5-carboxylic acid] are -18% and -25%.
For `CCCCCCCCC1CNc2ccc(C(=O)O)cc21` (racemic) [Compound BQQ, (RS)-3-(n-octyl)indoline-5-carboxylic acid], the change in vivo at 0.2 % strength is, setting by setting: under setting [1], 11%; under setting [2], 31%.
Regarding `CCCCCCCCCCCc1cc2cc(C(=O)OCC)ccc2[nH]1` [Compound U, ethyl 2-(n-undecyl)indole-5-carboxylate], the change in vivo at 0.2 % strength was -13% under setting [1] and -39% under setting [2].
Taken in the same sequence, the figures for `CCCCCCCCCCc1cc2ccc(C(=O)O)cc2[nH]1` [Compound N, 2-(n-decyl)indole-6-carboxylic acid] were -20% and -45%.
For `CCCCCCCCCCCCCCCCCCCCc1cc2cc(C(=O)O)ccc2[nH]1` [Compound AA, 2-(n-eicosyl)indole-5-carboxylic acid], the change in vivo at 0.2 % strength is, setting by setting: under setting [1], -36%; under setting [2], -57%.
The corresponding values for `CCCCCCCc1cc2ccc(C(=O)O)cc2[nH]1` [Compound R, 2-(n-heptyl)indole-6-carboxylic acid] are -12% and -18%.
For the compound `CCCCCCCCCCC1Cc2cc(C(=O)O)ccc2N1` (racemic) [Compound ACC, (RS)-2-(n-decyl)indoline-5-carboxylic acid], the change in vivo at 0.2 % strength runs as follows: under setting [1], -26%; under setting [2], -71%.
Consider `CCCCCCCCCCCCCCCc1cc2cc(C(=O)OCCCC)ccc2[nH]1` [Compound HH, n-butyl 2-(n-pentadecyl)indole-5-carboxylate], for which the change in vivo at 0.2 % strength was -24% under setting [1] and -50% under setting [2].
As to `CCCCCCCCCCCCCCCCCCC1CNc2ccc(C(=O)O)cc21` (racemic) [Compound BOO, (RS)-3-(n-octadecyl)indoline-5-carboxylic acid], the change in vivo at 0.2 % strength was 3% under setting [1] and 9% under setting [2].
As to `CCCCCCCCCCCCCCCCCCC1CNc2cc(C(=O)O)ccc21` (racemic) [Compound CBB, (RS)-3-(n-octadecyl)indoline-6-carboxylic acid], the change in vivo at 0.2 % strength by setting is: under setting [1], 2%; under setting [2], -7%.
The corresponding values for `CCCCCCCCCCCCCCCc1cc2c(C(=O)O)cccc2[nH]1` [Compound J, 2-(n-pentadecyl)indole-4-carboxylic acid] are -9% and -2%.
The corresponding values for `CCCCCCCCCCCCCCCCc1c[nH]c2ccc(C(=O)O)cc12` [Compound BHH, 3-(n-hexadecyl)indole-5-carboxylic acid] are -6% and -10%.
As for `CCCCCCCCCCCCCCCCC1CNc2cc(C(=O)O)ccc21` (racemic) [Compound CDD, (RS)-3-(n-hexadecyl)indoline-6-carboxylic acid], the change in vivo at 0.2 % strength by setting is: under setting [1], -19%; under setting [2], -41%.
The corresponding values for `CCCCCCCCCCCCc1c[nH]c2cc(C(=O)O)ccc12` [Compound BDD, 3-(n-dodecyl)indole-6-carboxylic acid] are -2% and -5%.
Taken in the same sequence, the figures for `CCCCCCCCCCCC1Nc2cc(C(=O)O)ccc2C1C` (stereo not drawn) [Compound CNN, 2(RS),3(RS)-2-(n-undecyl)-3-methylindoline-6-carboxylic acid] were -31% and -72%.
Taken in the same sequence, the figures for `CCCCCCCCCc1cc2cc(C(=O)O)ccc2[nH]1` [Compound O, 2-(n-nonyl)indole-5-carboxylic acid] were -13% and -44%.
`CCCCCCCCCCCCCc1cc2ccc(C(=O)O)cc2[nH]1` [Compound A, 2-(n-tridecyl)indole-6-carboxylic acid]: the change in vivo at 0.2 % strength under setting [1] is -26% and the change in vivo at 0.2 % strength under setting [2] is -33%.
The corresponding values for `CCCCCCCCCCCc1cc2cccc(C(=O)O)c2[nH]1` [Compound XX, 2-(n-undecyl)indole-7-carboxylic acid] are -2% and 8%.
